Assay results as given in article PMC9863266, “Preclinical Studies and Drug Combination of Low-Cost Molecules for Chagas Disease” (Pharmaceuticals, 2022).
Several values for one entry are separate records, joined by “and”; a condition that tells them apart may be missing. Equal values may be shown once.

Legend:
T. brucei = test system: T. brucei; parameters: method as in earlier work; settings: read-out: In vitro anti-T. brucei activity (IC50); cited from earlier work
[1] = test system: Salmonella typhimurium strains TA98, T100, T102, TA1535, and TA1537; experiment: Ames test (mutagenicity); format: cell-based; settings: for Ames test TA98 revertant colonies / Ames test TA100 revertant colonies / Ames test TA102 revertant colonies / Ames test TA1535 revertant colonies / Ames test TA1537 revertant colonies: absence of metabolic activation
Method: The mutagenic capacity of the compounds was determined from a 2 × 10^9 CFU/mL culture in Oxoid No. 2 medium in the exponential phase of Salmonella typhimurium strains TA98, T100, T102, TA1535, and TA1537 (hisD3052, histidine-dependent). Five serial dilutions to the third in DMSO were evaluated, starting from the maximum non-toxic dose estimated from the results of the toxicity test carried out initially. Positive controls were performed with 4-nitro-o-phenylenediamine (20 µg/plate) in the case of mutagenicity without activation. DMSO (50 µL/plate) and phenotype control (resistance to ampicillin, tetracycline, crystal violet, and sensitive UV light) were used as negative control. Compounds were incubated for 1 h at 37 °C in 2 mL of an agar solution containing 200 µL of histidine solution [(0.5 mM)/biotin (0.5 mM)]. It was then grown on glucose minimal agar for 48 h at 37 °C. When the effect of the metabolization on the compounds was studied, the S9 fraction (Gibco™, Thermo Fisher Scientific, Grand Island, NY, US) […] and expressed as the mean of duplicates ± standard deviation. The product was considered mutagenic when the number of revertant colonies doubled that of the negative control in at least two consecutive doses. The preparation of the bacterial suspension, the dissolution of the S9 fraction, the product, and the first part of the test (until the tubes with all the solutions were transferred to the stove for incubation) was carried out under sterile conditions, in a laboratory laminar flow and with sterile material (autoclave at 121 °C for 20 min or maintaining the manufacturer’s sterility). The addition of the histidine/biotin solution and the seeding of the plates were carried out under an upward air current generated by a burner.

[2] = test system: trypomastigote form of T. cruzi (strain Y); experiment: Trypanosomicidal activity in trypomastigotes; format: cell-based; settings: Trypanosoma cruzi, 24 h, 4 °C, infected mouse blood
Method: The experiment was performed on infected, three-month-old, Balb/c mice. Seven days post-infection, when in a parasitemia peak (>1.0 × 10^6 parasites /mL), the blood of the living (anesthetized) mouse was extracted from the aorta or eye (1 mL per mouse), and citrate was used as an anticoagulant, then seeded in a 96-well plate with a final volume of 100 μL (90 μL of blood + 10 μL from a stock solution of the compound containing 10% DMSO). It was left at 4 °C, 24 h, then 5 μL of each sample was used to count trypomastigotes using a 40x optical microscope (MO) (50-field method). The plate fill was performed by homogenizing the well before filling each well (very slowly), and it was performed in triplicate or quadruplicate to obtain the IC50 values of each compound.

[3] = test system: epimastigote form of T. cruzi, Tulahuen 2 strain; experiment: Viability by flow cytometry, CA-AM/IP labeling; format: cell-based; settings: 20 × IC50
Method: Additionally, we evaluated the viability of treated parasites by flow cytometry analysis after incubation with methylated acetoxycalcein (CA-AM) and propidium iodide (IP). […] Since the methodology used to determine the IC50 is based on 5 days of incubation, doses 20 times higher were used to analyze cell viability in shorter times. Similarly, these compounds’ concentrations were used to determine the death mechanism involved at the aforementioned times.
Viability studies of parasites by flow cytometry: The feasibility studies were carried out by evaluating the esterase activity of the parasites using Acetoxymethylated Calcein (CA-AM) and IP (Thermo Fisher Scientific). […] Fluorescence intensity for 10,000 events was acquired from two independent experiments and data were analyzed using BD CSampler software (BD Bioscience).

Leishmania infantum = test system: Leishmania infantum; parameters: method as in earlier work; settings: promastigotes; read-out: In vitro anti-Leishmania infantum (visceral) activity (IC50); cited from earlier work
zebrafish embryos = test system: zebrafish embryos
Method: 1-Phenyl-2-thiourea (0.003%) was added to system water to inhibit melanogenesis in embryos destined for microscopic imaging. The eggs were collected, and the unfertilized ones were discarded. […] At this stage, the membrane that protects the embryo (chorion) was manually removed. This was completed on a 1 % agarose plate and medium for embryos. Two 96-well plates with a curved bottom were prepared. […] One embryo was placed per […], and it was verified that it had not suffered any injury when it was transferred. After preparing the plates, the embryos were evaluated. For this, they were placed in a humid chamber to avoid the evaporation of the compounds and were incubated at 28 °C. At 24 h, the first observation was made and half of the medium in each well was replaced to ensure that the concentrations remained constant during the 96 h of exposure. To do this, 100 µL of medium was removed from each well and replaced with 100 µL of fresh medium. […] In addition, any other type of abnormality that may indicate teratogenicity was recorded. The same was performed every 24 h until 96 h of exposure where the test was considered finished. The embryos were sacrificed in 70% ethanol. […] The curve obtained was fitted to a sigmoid using the OriginLab 8.5 program.

## O=C(/C=C/C=C/c1ccco1)/C=C/C=C/c1ccco1 [Compound 793]
T. brucei
  IC50: 17 µM
[1]
  Ames test (mutagenicity): NO
[1]; 6 μg/plate
  Ames test TA98 revertant colonies: 5±2
  Ames test TA100 revertant colonies: 89±3
  Ames test TA102 revertant colonies: 171±1
  Ames test TA1535 revertant colonies: 8±1
  Ames test TA1537 revertant colonies: 16 ± 1
[1]; 18 μg/plate
  Ames test TA98 revertant colonies: 9±3
  Ames test TA100 revertant colonies: 76±5
  Ames test TA102 revertant colonies: 176±1
  Ames test TA1535 revertant colonies: 12±1
  Ames test TA1537 revertant colonies: 18±1
[1]; 55 μg/plate
  Ames test TA98 revertant colonies: 3±1
  Ames test TA100 revertant colonies: 74±6
  Ames test TA102 revertant colonies: 194±3
  Ames test TA1535 revertant colonies: 14± 3
  Ames test TA1537 revertant colonies: 24± 4
[1]; 166 μg/plate
  Ames test TA98 revertant colonies: 3 ± 1
  Ames test TA100 revertant colonies: 58±3
  Ames test TA102 revertant colonies: 203±2
  Ames test TA1535 revertant colonies: 18±1
  Ames test TA1537 revertant colonies: 28± 3
[1]; 500 μg/plate
  Ames test TA98 revertant colonies: 5±1
  Ames test TA100 revertant colonies: 69±1
  Ames test TA102 revertant colonies: 222±6
  Ames test TA1535 revertant colonies: 20±1
  Ames test TA1537 revertant colonies: 30 ± 3
[2]
  IC50: 25 ± 5 µM
[3]; 6 h
  CA-AM/IP labeling Q1-UR (CA-AM+/IP+ double-labeled parasites): 82%
[3]; 24 h
  CA-AM/IP labeling Q1-UR (CA-AM+/IP+ double-labeled parasites): 98%
Leishmania infantum
  IC50: 31 µM
Zebrafish embryos; 96 h exposure
  Teratogenicity in zebrafish (LD50 ± SD): 22 µM and 22 ± 5 µM
Zebrafish embryos; zebrafish, in vivo
  Selectivity: zebrafish LD50 versus IC50 in the parasite: four
